Results: US10894946B2, “Multiloop engineered heart muscle tissue” (Tissue Systems Holding GmbH, priority 2005, dated 2021)
“Also recorded” adds a separate entry of the source.

Tested on: engineered heart tissue (EHT) rings from heart cells of neonatal rats
Test: isometric contraction experiments of single EHT rings (twitch tension, calcium response curves)
Type: cell-based, rat
Details: culture medium supplemented with 10 pg/ml insulin vs untreated controls; n=4 vs n=3
Method: In a further step, the force-generating engineered heart tissue rings, which are in contact with each other, are cultured under conditions which allow the fusion of the contacted ring structures to form an artificial heart muscle construct. For this purpose, the engineered heart tissue rings are normally incubated in culture dishes, wherein the rings are submersed in appropriate culture medium. If a holding device is used for culturing, the device should be designed to allow the tissue rings to stay in continuous contact with the culture medium. The choice of the culture medium is not critical. Conventional media for culturing cardiac myocytes may be used. Such media are known in the art and described, for example, in Zimmermann, W. H. et al., Circulation 106, I 151-7 (2002) and published International Application WO 01/55297. […]
FIGS. 1A-1F show the influences of oxygen, load, and insulin in isometric contraction experiments in single engineered heart tissue (EHT) rings (TT: twitch tension). […] To increase size, 5 EHT rings (FIG. 1D) were stacked in a custom made device that facilitate EHT fusion and contractions under auxotonic load (FIG. 1E), resulting in synchronously contracting multiring EHT constructs (FIG. 1F) ready for in vivo engraftment. *P<0.05 vs. 21% 02, static load, and culture in the absence of insulin (Ctr.), respectively by repeated ANOVA. […]

insulin
contracting characteristics (twitch tension) of EHT rings: benefited; also recorded: enhanced contracting characteristics
